Among the data in patent US8278320B2, “Azabicyclo[2.2.1]heptane compounds as alpha-7 nicotinic acetylcholine receptor ligands” (Bristol-Myers Squibb Company, priority 2009, dated 2012) are EC50 values, retold here.

Where two headings read alike, the source gives them in different places.

This assay has as its target α-7 nicotinic ACh receptor ion channel expressed in mammalian HEK 293 cells (Rattus norvegicus, UniProt Q05941). The experiment in a line: Ca2+-sensitive, fluorescence-based FLIPR assay for α-7 nicotinic acetylcholine receptor channel function (agonist activity). The class given is cell-based. Details: expressed in transfected cells. The settings on record: Ca2+ flux, HEK-293 cells, Fluo-4. The protocol: I) α7 Nicotinic Acetycholine Receptor Binding. Membranes were prepared for binding using HEK293 cells stably expressing the rat α7 nicotinic acetycholine receptor (rat α7 nAChR). Cells were homogenized at 4° C. in hypotonic lysis buffer consisting of 10 mM Tris (pH 7.4), 5 mM EDTA and protease inhibitors and centrifuged at 32000×g for 20 minutes. The pellet was washed once in membrane wash buffer consisting of 50 mM Tris (pH 7.4), 1 mM EDTA and protease inhibitors and centrifuged at 32000×g for 20 minutes. This pellet was then resuspended in assay buffer consisting 50 mM KH2PO4 (pH 7.4 at 25° C.), 1 mM EDTA, 0.005% Triton-X 100 and 0.1% (v/v) Sigma Protease Inhibitor Cocktail. Aliquots were then frozen in dry ice/ethanol and kept at −80° C. until the day of the assay. II) A Ca^2+-Sensitive, Fluorescence-Based Assay α-7 for Nicotinic Acetylcholine Receptor Channel Function In Mammalian Cells (“FLIPR”). Summary: Lead compounds are evaluated for agonist activity at α-7, α3β4, α4αβ2, and α1β1δ1ε sub-types of nicotinic ACh receptor ion channels expressed in mammalian HEK 293 cells. Agonist potency and efficacy values are determined from kinetic fluorescence Ca^2+ influx measurements made using a 384 well FLIPR (Fluorescence Image Plate Reader). […] In this assay, channel expressing HEK cell lines seeded in 384 well assay plates are loaded with a membrane permeant fluorescent Ca^2+ indicator dye, whose 510 nm green emission signal increases in response to elevation of intracellular Ca^2+ concentration. The basal fluorescence from the cells is monitored in real time, followed by the acute addition of test compounds.
Materials and Methods: Reagents: The acetomethoxy (AM) ester of the Ca^2+ indicator dye Fluo-4 was obtained from InVitrogen, (Carlsbad, Calif.). Acetylcholine and all buffer constituents were purchased from Sigma Chemical Company, St. Louis, Mo. G418 and Minimal Essential Medium were purchased from InVitrogen Life Technologies, Carlsbad, Calif. Fetal bovine serum was purchased from (InVitrogen, Carlsbad, Calif.).
Cell Culture: HEK-293 cells were grown in Minimal Essential Medium containing 10% (v/v) fetal bovine serum at 37° C. in a 5% CO2 incubator. HEK-293 cells stably expressing the ion channels were grown in the same medium with the addition of 500 μg/ml G418.
Ca^2+ flux assays of Ca^2+ channels expressed in HEK-293 cells: HEK-293 cells expressing the ion channels of interest were plated in 384 well, black-walled, clear-bottomed, poly-D-lysine coated plates at a density of ˜20,000 cells/well in 20 μl of Minimal Essential Medium containing 10% (v/v) fetal bovine serum and incubated for 2 days at 29° C. in a 5% CO2 incubator. Prior to assay, cells were loaded with the Fluo-4 AM ester. […] Dye loading was allowed to proceed for 90 minutes at room temperature at which time the dye loading solution was removed and replaced with 40 μl/well of Hanks buffer. Cells loaded with dye were loaded onto a FLIPR384 (Molecular Devices, Sunnyvale, Calif.). Fluo-4 dye was excited using the 488 nm line of an argon laser. Emission was filtered using a 540+/−30 nm bandpass filter. For evaluation of the effects of test compounds using the Ca^2+ flux assay, compounds to be tested were provided in assay ready plates. For nicotinic receptor ion channel expressing cells, the assay was initiated by the addition of 20 μl/well of Hanks buffer containing test compounds. For all assays, data were collected at 1 Hz for 10 seconds (baseline), at which time the compound containing stimulus buffers are added, and further measurements collected at 0.33 Hz for 3 min.
Data Analysis: The statistical robustness of the nicotinic receptor Ca^2+ flux assays is determined from blanks and totals wells. […] The raw fluorescence units data files generated on the FLIPR plate reader are automatically exported and processed by in-house data analysis tools.
On the technique in general: A change in cytosolic calcium serves as a functional read-out for many receptors and channels.

Where [1] appears, read: agonist potency class, read-out: FLIPR α7 activity rating (EC50).
Setting [2] is: agonist potency, read-out: FLIPR α7-HI (EC50).
Setting [3] is: FLIPR α7-HI (EC50, nM), agonist potency.
[4] abbreviates: FLIPR α7 activity rating (EC50, nM), agonist potency class.

Sequence of α-7 nicotinic ACh receptor ion channel expressed in mammalian HEK 293 cells (Q05941 23-502): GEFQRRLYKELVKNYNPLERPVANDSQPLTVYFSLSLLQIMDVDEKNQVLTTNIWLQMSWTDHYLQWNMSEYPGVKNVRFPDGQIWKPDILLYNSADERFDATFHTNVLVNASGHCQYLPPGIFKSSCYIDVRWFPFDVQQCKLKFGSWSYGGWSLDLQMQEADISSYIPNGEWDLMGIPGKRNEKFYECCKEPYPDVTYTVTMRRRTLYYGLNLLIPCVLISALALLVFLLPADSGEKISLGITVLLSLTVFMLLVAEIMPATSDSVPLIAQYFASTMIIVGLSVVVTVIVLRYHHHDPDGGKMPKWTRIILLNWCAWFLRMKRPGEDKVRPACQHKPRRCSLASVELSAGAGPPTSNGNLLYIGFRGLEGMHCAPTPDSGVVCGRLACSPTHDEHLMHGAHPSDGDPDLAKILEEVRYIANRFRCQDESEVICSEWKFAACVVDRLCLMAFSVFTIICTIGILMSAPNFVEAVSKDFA

As a reminder, the EC50 is the concentration needed to bring the measured effect to its halfway point. For the compound `COc1ccc2nc(NC3=NC[C@@]4(C[N@]5CC[C@H]4C5)O3)sc2c1` (relative stereo) [Example 1, (3R*,4S*)—N-(6-Methoxybenzo[d]thiazol-2-yl)-4′H-1-azaspiro[bicyclo[2.2.1]heptane-3,5′-oxazol]-2′-amine], the EC50 was 1000 to 100000 nM under setting [1] and 411 nM under setting [2].

`COc1ccc2nc(NC3=NC[C@@]4(C[N@@]5CC[C@@H]4C5)O3)sc2c1` (relative stereo) [Example 2, (3R*,4R*)—N-(6-Methoxybenzo[d]thiazol-2-yl)-4′H-1-azaspiro[bicyclo[2.2.1]heptane-3,5′-oxazol]-2′-amine]: the EC50 under setting [1] was 1000 to 100000 nM.

`Clc1ccc2nc(NC3=NC[C@@]4(C[N@@]5CC[C@@H]4C5)O3)sc2n1` (relative stereo) [Example 3, (3R*,4R*)—N-(5-Chlorothiazolo[5,4-b]pyridin-2-yl)-4′H-1-azaspiro[bicyclo[2.2.1]heptane-3,5′-oxazol]-2′-amine]: the EC50 under setting [3] is 91 nM and the EC50 under setting [4] was in the range of 100 to 1000 nM.

The compound `Fc1ccc2nc(NC3=NC[C@@]4(C[N@@]5CC[C@@H]4C5)O3)sc2n1` (relative stereo) [Example 4, (3R*,4R*)—N-(5-Fluorothiazolo[5,4-b]pyridin-2-yl)-4′H-1-azaspiro[bicyclo[2.2.1]heptane-3,5′-oxazol]-2′-amine] registered an EC50 under setting [4] of 100 to 1000 nM.

As for `COc1ccc2nc(NC3=NC[C@@]4(C[N@@]5CC[C@@H]4C5)O3)sc2n1` (relative stereo) [Example 5, (3R*,4R*)—N-(5-Methoxythiazolo[5,4-b]pyridin-2-yl)-4′H-1-azaspiro[bicyclo[2.2.1]heptane-3,5′-oxazol]-2′-amine], the EC50 was 311 nM under setting [3] and 1000 to 100000 nM under setting [4].

Turning to `Clc1cnc(NC2=NC[C@@]3(C[N@@]4CC[C@@H]3C4)O2)c(Cl)c1` (relative stereo) [Example 6, (3R*,4R*)—N-(3,5-Dichloropyridin-2-yl)-4′H-1-azaspiro[bicyclo[2.2.1]heptane-3,5′-oxazol]-2′-amine], the EC50 under setting [3] is 155 nM and the EC50 under setting [4] fell in the range of 100 to 1000 nM.

Turning to `c1ccc2cc(NC3=NC[C@@]4(C[N@@]5CC[C@@H]4C5)O3)ncc2c1` (relative stereo) [Example 7, (3R*,4R*)—N-(Isoquinolin-3-yl)-4′H-1-azaspiro[bicyclo[2.2.1]heptane-3,5′-oxazol]-2′-amine], the EC50 under setting [4] was less than 100 nM.

Regarding `c1cnc2sc(NC3=NC[C@@]4(C[N@@]5CC[C@@H]4C5)O3)nc2c1` (relative stereo) [Example 8, (3R*,4R*)—N-(Thiazolo[5,4-b]pyridin-2-yl)-4′H-1-azaspiro[bicyclo[2.2.1]heptane-3,5′-oxazol]-2′-amine], the EC50 under setting [4] was in the range of 100 to 1000 nM.

On to `Cc1cccc(-c2cnc(NC3=NC[C@@]4(C[N@@]5CC[C@@H]4C5)O3)nc2)c1` (relative stereo) [Example 9, (3R*,4R*)—N-(5-m-Tolylpyrimidin-2-yl)-4′H-1-azaspiro[bicyclo[2.2.1]heptane-3,5′-oxazol]-2′-amine], for which the EC50 is 1000 to 100000 nM under setting [1] and 487 nM under setting [2].

`COc1ccc(NC2=NC[C@@]3(C[N@@]4CC[C@@H]3C4)O2)nc1` (relative stereo) [Example 10, (3R*,4R*)—N-(5-Methoxypyridin-2-yl)-4′H-1-azaspiro[bicyclo[2.2.1]heptane-3,5′-oxazol]-2′-amine]: the EC50 under setting [4] was in the range of 100 to 1000 nM.

`c1ccc2cc(NC3=NC[C@@]4(C[N@]5CC[C@H]4C5)O3)ncc2c1` (relative stereo) [Example 16, (3R*,4S*)—N-(Isoquinolin-3-yl)-4′H-1-azaspiro[bicyclo[2.2.1]heptane-3,5′-oxazol]-2′-amine] showed an EC50 under setting [3] of 33 nM and an EC50 under setting [4] of less than 100 nM.

`c1cnc2sc(NC3=NC[C@@]4(C[N@]5CC[C@H]4C5)O3)nc2c1` (relative stereo) [Example 17, (3R*,4S*)—N-(Thiazolo[5,4-b]pyridin-2-yl)-4′H-1-azaspiro[bicyclo[2.2.1]heptane-3,5′-oxazol]-2′-amine] came in with an EC50 under setting [4] of less than 100 nM.

`c1ccc2cc(NC3=NCC4(CN5CCC4C5)O3)ncc2c1` (single isomer, unassigned) [Example 7a] displayed an EC50 under setting [4] of less than 100 nM.
